Results on seven compounds are retold here after PMC10122656, “Siglec-6 mediates the uptake of extracellular vesicles through a noncanonical glycolipid binding pocket” (Nature Communications, 2023).

For assay [1], the target named is Siglec-1 fragment (Homo sapiens, UniProt Q9BZZ2). Description: Direct ESI-MS binding assay. Particulars: oligosaccharide moiety of the ganglioside; 3.6 µM Siglec-1 fragment, 20-140 µM ligand; table gives replicates, text mean ± SD; read-out: dissociation constant (Kd) of soluble Siglec-1 to the ganglioside oligosaccharide.
Siglec-1 fragment, sequence (Q9BZZ2 20-136 limits assumed): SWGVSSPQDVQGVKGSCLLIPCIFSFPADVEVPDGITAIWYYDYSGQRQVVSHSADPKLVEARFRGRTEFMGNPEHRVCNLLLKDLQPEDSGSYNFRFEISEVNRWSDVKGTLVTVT
Description: The affinities of ganglioside (GM1, GM2, GM3, and GD1a) oligosaccharides (L) for the Siglec-1 fragment were measured by the direct ESI-MS assay[1]. A reference protein (Pref) was added to the ESI solutions in order to correct mass spectra for any nonspecific binding that occurred during the ESI process[2]. […] Direct ESI-MS measurements were performed with nanoflow ESI in positive ion mode (voltage ~1 kV) on a Q-Exactive Orbitrap mass spectrometer (Thermo Fisher Scientific). Automatic gain control (AGC) target, the maximum inject time, capillary temperature, and S-lens RF level were set to 1 × 10^6, 100 ms, 150, and 100 °C, respectively. The resolution was 17,500 at m/z 200. Data acquisition and processing were carried out using Xcalibur (Thermo Fisher, version 4.1).
Assay [2] has as its target T1, WT Siglec-6 CHO cells (Homo sapiens, UniProt O43699).
T1 construct: expressed in transfected cells
Description: Cell assay (liposome/EV binding, flow cytometry). It counts as cell-based. Particulars: for Binding of liposomes to WT Siglec-6 CHO cells relative to liposomes formulated without a ligand (Fig. 3c): 3 mol% glycolipid, Cer = native ganglioside, Amide = amide-linked nGL; for Binding of liposomes to WT Siglec-6 CHO cells relative to liposomes formulated without a ligand (Fig. 3c) / Binding of nGL liposomes relative to liposomes formulated with 3 mol% nGL 5 (Fig. 3g): replicates; for nGLL binding to WT Siglec-6 CHO cells (in words): 3 mol% nGL in liposomes; for Binding of nGL liposomes relative to liposomes formulated with 3 mol% nGL 5 (Fig. 3g): WT Siglec-6 CHO cells. How it is done:
(§1) Stock lipids (DSPC, Cholesterol, PEG45–DSPE) solutions were prepared by solvating the lipids in chloroform. An appropriate volume of each lipid solution was transferred to a glass test tube to reach the desired mol% of the component. The chloroform was then removed under N2 gas to yield a lipid thin film. Once dry, 100 µL of DMSO was added to the lipid-containing test tube and then the functional lipids (ganglioside, AF647–PEG45–DSPE, Siglec ligand–PEG45–DSPE, pHrodo–PEG45–DSPE, NGL) was added from their respect DMSO stock solution. The lipid mixture was then stored at −80 °C until completely frozen at which point excess DMSO was removed via lyophilization. Dry lipids were then stored at −80 °C until they were extruded. Lipid suppliers can be found in Supplementary Table 4.
(§2) Dry lipids were then hydrated in 1 mL of PBS. The lipids were then sonicated in a bath sonicator in a cycle of 1 min on, 5 min off for a total of five cycles. Liposomes were then extruded using an Avanti mini extruder first using an 800 nm filter and then a 100 nm filter yielding liposomes that were 130 ± 35 nm (Supplementary Table 5) measured using a Malvern Panalytical Zetasizer Nano S. Liposomes were stored at 4 °C.
(§3) 200,000 cells/well were plated into a 96-well U-bottom microplate and centrifuged at 300 × g for 5 min. The cells were then resuspended in 50 µL of 50 µM liposome/50 µg/mL (protein concentration) of EV solution in DMEM F12 5% FBS and incubated at 37 °C for 30 min. Excess liposomes were then removed via centrifuged at 300 × g for 5 min followed by washing the cells with FACS solution. The cells were then resuspended in (1:250 V/V) anti-Siglec-flow buffer (1% V/V FBS, 500 µM, EDTA Hank’s Balanced Salt Solution pH 7.4), solution and left to rest on ice for 30 min. The cells were then centrifuged again at 300 × g for 5 min and the cells were resuspended in FACS buffer solution and were then ready for analysis by flow cytometry. Information regarding antibody clone, catalog number supplier, label isotype, and dilution can be found in Supplementary Table 6. The Siglec-positive cells were gated on for liposome-binding analysis (Supplementary Fig. 1b).
(§4) Flow cytometry measurements were collected on a 5-laser Fortessa X-20 (BD Bioscience). All the resulting data were analyzed using FlowJo (10.5.3) software (BD Biosciences).
On the technique in general: A flow cytometer gives signals particle by particle.

Assay [3] addresses T2, R122A Siglec-6 CHO cells (Homo sapiens, UniProt O43699, R122A).
T2 construct: expressed in transfected cells
Nature of the assay: Cell assay (liposome/EV binding, flow cytometry). It counts as cell-based. Particulars: for nGLL binding to R122A Siglec-6 CHO cells (in words): 3 mol% nGL in liposomes, compared to 3 mol% 5; for Binding of nGL liposomes relative to liposomes formulated with 3 mol% nGL 5 (Fig. 3g): R122A Siglec-6 CHO cells, replicates; for liposome binding, fluorescence signal (replicates): sheet Figure S18b, cells not given. The protocol:
as §1, §2, §3, §4

Assay [4] relates to untransfected (UT) CHO cells. Nature of the assay: Cell assay (liposome/EV binding, flow cytometry). To be noted: sheet Figure S22b, CHO. The assay is classed as cell-based, Chinese Hamster. The protocol:
as §1, §2, §3, §4

The target in assay [5] is T3, WT Siglec-1 CHO cells (Homo sapiens, UniProt Q9BZZ2).
T3 construct: expressed in transfected cells
T3 sequence (Q9BZZ2 20-1709): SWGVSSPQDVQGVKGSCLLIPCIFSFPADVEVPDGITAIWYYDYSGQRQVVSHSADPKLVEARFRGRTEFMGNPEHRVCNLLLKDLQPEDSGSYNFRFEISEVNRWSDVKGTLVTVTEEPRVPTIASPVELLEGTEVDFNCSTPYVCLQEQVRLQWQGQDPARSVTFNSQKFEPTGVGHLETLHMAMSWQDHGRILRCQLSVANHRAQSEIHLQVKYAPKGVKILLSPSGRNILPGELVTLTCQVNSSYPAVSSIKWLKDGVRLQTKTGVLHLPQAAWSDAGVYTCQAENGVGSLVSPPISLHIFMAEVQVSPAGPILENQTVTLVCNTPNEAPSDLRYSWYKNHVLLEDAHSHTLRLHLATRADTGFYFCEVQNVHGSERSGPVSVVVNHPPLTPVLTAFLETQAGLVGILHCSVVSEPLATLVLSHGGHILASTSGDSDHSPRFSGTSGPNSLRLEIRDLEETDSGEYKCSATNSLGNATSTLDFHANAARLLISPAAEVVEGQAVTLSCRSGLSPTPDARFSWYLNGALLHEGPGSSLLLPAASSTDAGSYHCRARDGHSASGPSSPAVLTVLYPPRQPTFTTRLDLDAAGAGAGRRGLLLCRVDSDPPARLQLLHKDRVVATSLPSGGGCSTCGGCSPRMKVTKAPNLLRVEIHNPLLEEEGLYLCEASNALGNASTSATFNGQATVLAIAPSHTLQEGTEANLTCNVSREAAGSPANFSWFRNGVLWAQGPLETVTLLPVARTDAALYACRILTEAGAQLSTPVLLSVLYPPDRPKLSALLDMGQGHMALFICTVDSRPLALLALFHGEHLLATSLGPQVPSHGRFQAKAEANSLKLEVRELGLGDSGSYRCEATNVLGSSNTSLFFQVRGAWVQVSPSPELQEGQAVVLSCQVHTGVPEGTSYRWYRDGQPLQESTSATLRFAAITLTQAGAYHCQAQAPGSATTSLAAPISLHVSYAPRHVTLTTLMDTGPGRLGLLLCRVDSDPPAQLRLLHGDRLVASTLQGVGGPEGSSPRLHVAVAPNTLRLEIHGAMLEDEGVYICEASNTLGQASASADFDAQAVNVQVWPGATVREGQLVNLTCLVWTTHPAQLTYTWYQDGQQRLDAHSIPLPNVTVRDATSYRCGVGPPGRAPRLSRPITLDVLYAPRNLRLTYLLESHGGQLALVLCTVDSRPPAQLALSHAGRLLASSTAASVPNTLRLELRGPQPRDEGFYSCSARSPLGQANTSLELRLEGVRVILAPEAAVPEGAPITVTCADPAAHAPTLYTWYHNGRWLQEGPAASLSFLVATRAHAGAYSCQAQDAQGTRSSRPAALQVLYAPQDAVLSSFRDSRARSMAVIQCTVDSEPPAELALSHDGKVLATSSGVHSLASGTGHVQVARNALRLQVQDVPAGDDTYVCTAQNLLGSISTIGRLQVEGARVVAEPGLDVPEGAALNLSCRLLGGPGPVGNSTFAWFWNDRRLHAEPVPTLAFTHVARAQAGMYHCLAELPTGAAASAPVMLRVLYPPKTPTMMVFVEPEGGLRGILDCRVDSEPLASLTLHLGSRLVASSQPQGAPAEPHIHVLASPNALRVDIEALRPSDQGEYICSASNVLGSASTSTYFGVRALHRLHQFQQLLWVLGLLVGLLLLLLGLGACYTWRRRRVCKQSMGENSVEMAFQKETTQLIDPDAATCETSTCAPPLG
Description: Cell assay (liposome/EV binding, flow cytometry). It counts as cell-based. Also on record: GM1 liposome binding to Siglec-1 CHO cells, flow cytometry (Fig. 1b) / Binding of liposomes with increasing ganglioside content against Siglec-1 CHO cells (Fig. 1c) / Liposome binding to Siglec-1-expressing CHO cells in the cell assay (Fig. 1f): unit not given here. How it is done: as §1, §2, §3, §4

[6] abbreviates: sheet Figure S17, cells not given, three experiments, each with its own Naked control.
The mark [7] stands for this setting: sheet Figure S18a, cells not given.

Several values for one entry are separate records, joined by “and”; a condition that tells them apart may be missing. Equal entries are not always repeated.

T2 sequence (O43699 27-453 R122A): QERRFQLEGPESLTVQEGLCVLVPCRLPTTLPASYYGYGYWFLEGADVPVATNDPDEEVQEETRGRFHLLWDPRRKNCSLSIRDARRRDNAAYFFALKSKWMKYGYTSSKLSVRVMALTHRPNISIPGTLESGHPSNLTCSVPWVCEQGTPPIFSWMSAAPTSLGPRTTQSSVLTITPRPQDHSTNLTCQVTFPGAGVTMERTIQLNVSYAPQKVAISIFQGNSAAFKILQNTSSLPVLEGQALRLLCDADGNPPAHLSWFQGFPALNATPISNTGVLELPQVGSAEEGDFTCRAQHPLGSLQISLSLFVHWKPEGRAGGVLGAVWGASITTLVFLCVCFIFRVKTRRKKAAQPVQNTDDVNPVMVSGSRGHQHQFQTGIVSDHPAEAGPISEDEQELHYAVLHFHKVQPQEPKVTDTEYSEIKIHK
T1 sequence (O43699 27-453): as the sequence (O43699 27-453 R122A) above, with A96R counted along it

What is called Kd is the constant that tells how readily two partners part at equilibrium. For `CC(=O)N[C@H]1[C@H]([C@H](O)[C@H](O)CO)O[C@@](O[C@H]2[C@@H](O)[C@@H](CO)O[C@@H](O[C@H]3[C@H](O)[C@@H](O)C(O)O[C@@H]3CO)[C@@H]2O)(C(=O)O)C[C@@H]1O` (stereo partly drawn) [GM3 trisaccharide, α-Neup5Ac-(2 → 3)-β-lactose], the Kd in assay [1] amounted to 500 ± 100 µM.

For the compound `CCCCCCCCCCCCCCCCOCC(COCCCCCCCCCCCCCCCC)OCC(=O)NCCO[C@@H]1O[C@H](CO)[C@@H](O[C@@H]2O[C@H](CO)[C@H](O[C@@H]3O[C@H](CO)[C@H](O)[C@H](O[C@@H]4O[C@H](CO)[C@H](O)[C@H](O)[C@H]4O)[C@H]3NC(C)=O)[C@H](O[C@]3(C(=O)O)C[C@H](O)[C@@H](NC(C)=O)[C@H]([C@H](O)[C@H](O)CO)O3)[C@H]2O)[C@H](O)[C@H]1O` [nGL 3], in assay [2] (listed as GM1 Amide), the “Binding of liposomes to WT Siglec-6 CHO cells relative to liposomes formulated without a ligand (Fig. 3c)” value was 0.68 and 0.67 and 0.66 and 0.75. In addition, in assay [2], the “nGLL binding to WT Siglec-6 CHO cells (in words)” value is on record as “bound minimally”. Further, the “liposome binding, fluorescence signal (replicates)” value (shortened to “liposome binding … (replicates)”) in assay [2] (setting [6]) was 541 and 535 and 525 and 596.

Turning to `CCCCCCCCCCCCCCCCOCC(COCCCCCCCCCCCCCCCC)OCC(=O)NCCO[C@@H]1O[C@H](CO)[C@@H](O[C@@H]2O[C@H](CO)[C@H](O)[C@H](O[C@]3(C(=O)O)C[C@H](O)[C@@H](NC(C)=O)[C@H]([C@H](O)[C@H](O)CO)O3)[C@H]2O)[C@H](O)[C@H]1O` [nGL 4], the “Binding of liposomes to WT Siglec-6 CHO cells relative to liposomes formulated without a ligand (Fig. 3c)” value in assay [2] (listed as GM3 Amide) is 2.34 and 2.47 and 2.38 and 2.75. In assay [2] (setting [6]), the “liposome binding … (replicates)” value is 713 and 752 and 727 and 839.

Consider `CCCCCCCCCCCCCCCCOCC(COCCCCCCCCCCCCCCCC)OCc1cn(CCO[C@@H]2O[C@H](CO)[C@@H](O[C@@H]3O[C@H](CO[C@]4(C(=O)O)C[C@H](O)[C@@H](NC(C)=O)[C@H]([C@H](O)[C@H](O)CO)O4)[C@H](O)[C@H](O)[C@H]3O)[C@H](O)[C@H]2O)nn1` [nGL 8], for which, in assay [3], the “nGLL binding to R122A Siglec-6 CHO cells (in words)” value is reported as “bound minimally”; the “Binding of nGL liposomes relative to liposomes formulated with 3 mol% nGL 5 (Fig. 3g)” value is 0.06 and 0.08 and 0.07; the “liposome binding … (replicates)” value was 599 and 635 and 605. Moreover, in assay [2], the “nGLL binding to WT Siglec-6 CHO cells (in words)” value is “bound minimally”; the “Binding of nGL liposomes relative to liposomes formulated with 3 mol% nGL 5 (Fig. 3g)” value is 0.05 and 0.03 and 0.06 and 0.07. For the same compound, the “liposome binding … (replicates)” value in assay [2] (setting [7]) was 720 and 670 and 748 and 768.

Consider `CCCCCCCCCCCCCCCCOCC(COCCCCCCCCCCCCCCCC)OCc1cn(CCO[C@@H]2O[C@H](CO)[C@@H](O[C@@H]3O[C@H](CO)[C@H](O)[C@H](O[C@]4(C(=O)O)C[C@H](O)[C@@H](NC(C)=O)[C@H]([C@H](O)[C@H](O)CO)O4)[C@H]3O)[C@H](O)[C@H]2NC(C)=O)nn1` [nGL 9], for which the “Binding of nGL liposomes relative to liposomes formulated with 3 mol% nGL 5 (Fig. 3g)” value in assay [3] was 0.83 and 0.93 and 0.81 and 1.01; in assay [2], 0.77 and 0.6 and 0.59 and 0.63. The “liposome binding … (replicates)” value in assay [3] was 1939 and 2127 and 1908 and 2268; in assay [2] (setting [7]), 2520 and 2097 and 2058 and 2158. Moreover, the “nGLL binding to WT Siglec-6 CHO cells (in words)” value in assay [2] is listed as “modestly lower”.

For `CCCCCCCCCCCCCCCCOCC(COCCCCCCCCCCCCCCCC)OCc1cn(CCO[C@@H]2O[C@H](CO)[C@@H](O[C@@H]3O[C@H](CO[C@]4(C(=O)O)C[C@H](O)[C@@H](NC(C)=O)[C@H]([C@H](O)[C@H](O)CO)O4)[C@H](O)[C@H](O)[C@H]3O)[C@H](O)[C@H]2NC(C)=O)nn1` [nGL 10], in assay [3], the “nGLL binding to R122A Siglec-6 CHO cells (in words)” value is reported as “bound minimally”; the “Binding of nGL liposomes relative to liposomes formulated with 3 mol% nGL 5 (Fig. 3g)” value was 0.23 and 0.15 and 0.27; the “liposome binding … (replicates)” value was 899 and 894 and 758 and 962. In assay [2], the “nGLL binding to WT Siglec-6 CHO cells (in words)” value is given as “bound minimally”; the “Binding of nGL liposomes relative to liposomes formulated with 3 mol% nGL 5 (Fig. 3g)” value is 0.19 and 0.16 and 0.21. Moreover, the “liposome binding … (replicates)” value in assay [2] (setting [7]) was 1069 and 1003 and 987 and 1125.

In the case of asialo GM1 [GA1], the “liposome binding … (replicates)” value in assay [4] is 60 and 57 and 55 and 52; in assay [2] (sheet Figure S22b, Sig-6), 66 and 69 and 61 and 64. Also, in assay [5] (3% glycolipid in liposome, replicates), the “Liposome binding to Siglec-1-expressing CHO cells in the cell assay (Fig. 1f)” value is 71 and 68. Also, the “binding to WT Siglec-1 CHO cells (in words)” value in assay [5] (cell assay) is recorded as “did not mediate binding”.
